Reference: patent US8906865B2, “Treatment of inflammation and/or endotoxic shock” (ISIS Innovation Limited, priority 2007, dated 2014)

Key:
[1] = system: Murine peritoneal macrophages (PMΦ); assay: Macrophage activation assay: LPS/IFNγ-induced inflammatory cytokine expression (ELISA, Luminex); assay type: cell-based, mouse; details: for Percentage inhibition of LPS/IFNγ-induced inflammatory cytokine expression: RANTES / Percentage inhibition of LPS/IFNγ-induced inflammatory cytokine expression: TNFα / Percentage inhibition of LPS/IFNγ-induced inflammatory cytokine expression: IL-1β / Percentage inhibition of LPS/IFNγ-induced inflammatory cytokine expression: IL-6 / Percentage inhibition of LPS/IFNγ-induced inflammatory cytokine expression: IL-12 p40: PMΦ; for Percentage inhibition of LPS/IFNγ-induced inflammatory cytokine expression: RANTES / Percentage inhibition of LPS/IFNγ-induced inflammatory cytokine expression: TNFα: pre-treatment 1 h (0.1 pM-100 nM), then LPS 100 ng/ml + IFNγ 20 ng/ml 15 h, optimal dose (1 pM Chemerin and C15, 100 pM C13 and C19); for Anti-inflammatory activity in the MΦ activation assay: peptides 0.1 pM-100 nM; for Suppression of LPS/IFNγ-induced RANTES secretion (FIG. 2B) / Suppression of LPS/IFNγ-induced TNFα expression (FIG. 2B): C13m 100 pM, C15m 1 pM, C17m 1 pM, pre-treatment 1 h then LPS/IFNγ 15 h; for Percentage inhibition of LPS/IFNγ-induced inflammatory cytokine expression: IL-1β / Percentage inhibition of LPS/IFNγ-induced inflammatory cytokine expression: IL-6 / Percentage inhibition of LPS/IFNγ-induced inflammatory cytokine expression: IL-12 p40: pre-treatment 1 h, then LPS/IFNγ 15 h, 1 pM Chemerin and C15; for Optimal dose (maximal response) for suppression of LPS/IFNγ-induced cytokine expression: macrophage activation assay
Protocol: Murine peritoneal macrophages (PMθ, also referred to as PMΦ herein) were cultured under various conditions: Untreated; LPS (100 ng/ml) and IFNγ (20 ng/ml) for 15 h; Chemerin (1 pM) pre-treatment for 1 h then LPS/IFNγ for 15 h; Leupeptin (protease inhibitor; 15 mg/ml) and Chemerin (1 pM) for 1 h then LPS/IFNγ for 15 h; or Dexamethasone (positive control; 1 μM pre-treatment for 1 h then LPS/IFNγ for 15 h.
Murine PMθ were cultured under various conditions: Untreated, LPS (100 ng/ml) and IFNγ (20 ng/ml) for 15 h; Chemerin peptides (at a concentration of 1 pM-100 nM) pre-treatment for 1 h then LPS/IFNγ for 15 h. […] Experiments were performed with triplicate determinations for each treatment. Representative data from five independent experiments employing cells from different groups of C57B16/J mice are shown. p<0.01 **; p<0.001 *** relative to LPS/IFNγ treated samples.
With reference to Table 1, anti-inflammatory activity of chemerin-derived peptides—Murine PMΦ were cultured as described for FIG. 1B and were challenged with LPS (100 ng/ml) and IFNγ (20 ng/ml) for 15 h with/without pre-treatment with peptides (0.1 pM-100 nM) for 1 h. […] Peptide sequences are: C11 (P144-A154; […]), C13 (P144-S156; […]), C15 (A140-A154; […]), C19 (A138-S156; […]; Seq ID: No. 37), N19 (E23-K41; […] Seq ID No: 44) and M20 (K86-K105; […] Seq ID No. 45). Control peptides: scrambled C15 (C15-S; […]) and mutant C15 (C15-M; […]; F148A & F153A). Data represent mean percentage inhibition of cytokine production by classically activated macrophages from 4-8 independent experiments as determined by ELISA and Luminex assay.
1 ml 2% BioGEL polyacrylamide beads in sterile Phosphate-Buffered Saline (PBS) were injected intraperitoneally (ip) into C57B1/6J mice. Four days after ip BioGEL administration, mice were sacrificed by the CO, method according to Home Office guidelines. Peritoneal cavities were flushed with 10 ml sterile PBS-2 mM EDTA to harvest BioGEL-evoked/elicited cellular infiltrate. Suspensions of harvested cells were centrifuged at 1000×g for 5 mins at 4° C. The supernatants were discarded and cell pellets were resuspended in 6 mls OptiMEM medium supplemented with 2 mM Glutamine, 50 units/ml Penicillin and 50 μg/ml Streptomycin. Macrophages were quantified following incubation on ice for 5-10 mins with Turk's solution using a haemocytometer. Cell suspensions (2 mls; 1.5×10^6/well) were plated in six-well tissue culture plates (35 mm diameter: Costar, UK) and allowed to adhere for 2 hours at 37° C. in a humidified atmosphere containing 5% CO2, to isolate macrophage populations by adherence. This gave greater than 95% purity assessed by cytospinning, staining of cells with Methylene Blue and Eosin and counting based on cellular morphology. Nonadherent cells (mainly granulocytes) were discarded and wells were washed three times with sterile PBS to remove loosely adherent or dead cells. […] To determine PTX sensitivity and dependency upon proteolysis, cells were pre-incubated with PTX (200 ng/ml) or Leupeptin (15 μg/ml). Additional cells were treated with peptides alone. Supernatants were harvested and stored at −20° C. until use in Enzyme-Linked Immunosorbance Assays (ELISAs) and Luminex assays. Cells were lysed to allow extraction of total RNA by the TRIZOL method. Lysates were stored at −80° C. until RNA extraction following manufacturer's guidelines (Qiagen, RNeasy Mini Prep Kit).
RANTES, Tumour necrosis factor (TNFα) and CCL9 concentrations in cell supernatants were assessed by ELISA. IL-12 p40, IL-10, IL-1β, TNFα, MCP-1 (Monocyte chemoattractant protein-1) and IL-6 levels were determined by Luminex multiplex bead assay (Bio-rad 6 plex assay). Lower limits of detection for ELISAs were 0.1-0.5 ng/ml and 10-50 pg/ml for Luminex assays.

[2] = system: PMΦ (peritoneal macrophages); assay: Macrophage chemotaxis assay (modified Boyden chamber); assay type: cell-based, mouse; details: for Macrophage chemotactic activity: migration over 4 h, compared with C140 and RANTES 25 ng/ml
Protocol: PMθ (0.5×10^6) were allowed to migrate towards chemoattractant (Chemerin140 or Chemerin peptides) in the bottom well of a modified Boyden chamber over 4 h. Filters were fixed in 4% formalin, then migrated cell nuclei were stained with DAPI and visualised. Serum free media (SFM) were used as a negative control and the macrophage chemoattractant RANTES (25 ng/ml; 3 nM) as a positive control. The graphs indicate mean Migration Index (Chemoattractant % threshold area/SFM % threshold area)±SEM for each treatment group (n=5-6). p<0.001 ***; p<0.01 **; p<0.05 * relative to SFM treated wells.
PMθ were recruited following a 4 day peritoneal stimulation with BioGEL beads. Peritoneal cavities of male C57B16/J mice were lavaged with 5 ml PBS-2 mM EDTA. Cells were centrifuged and resuspended in RPMI supplemented with 0.5% BSA and 25 mM Hepes. Cells (0.5×10^6) were allowed to migrate towards chemoattractant (C140, C17m or C17m+C140) in the bottom well over 4 h. Filters were fixed in 4% formalin, then nuclei were stained with DAPI and visualised. Serum free media was used as a negative control (−/−). Cells were preincubated with Pertussis toxin (PTX) for 30 mins before the chemotaxis assay. The bar graphs in FIG. 11 show the mean Migration Index±SEM for each treatment group. Each bar represents at least triplicate wells and at least 3 pictures taken per treatment. p<0.001 ***; p<0.01 **; p<0.05 * relative to SFM treated wells unless otherwise stated.
Cell migration was assessed by use of transwell membranes (ChemoTX, 6-mm diameter, 8-μm pore size). Briefly, BioGEL-elicited cells were harvested and placed on transwell membranes (250 000 cells/membrane in RPMI supplemented with 25 mM Hepes and 0.1% bovine serum albumin. Cells were allowed to migrate toward Chemerin peptides (1 pM-100 nM) for 4 h. Signal transduction via G protein-coupled receptors was blocked by preincubating cells with pertussis toxin (PTX, 200 ng/ml, Sigma-Aldrich) for 30 mins before placing cells on transwell membranes. Migrated cells on the underside of membranes were fixed (3% formaldehyde) and stained with DAPI. Migration was quantified as total pixel count of DAPI stained nuclei under the confocal microscope (2 photos/membrane and a minimum of 3 replicate wells per treatment). Images were analyzed using Metamorph Offline software to determine percentage threshold areas (TA) occupied by migrated cells. Migration indices were obtained by dividing treatment TA by serum-free media TA. For secondary chemotaxis assays ChemoTx 3-mm diameter, 8-μm pore membranes were used with 50 000 cells/membrane.

Row | Molecule | Percentage inhibition of LPS/IFNγ-induced inflammatory cytokine expression: RANTES [1] [%] | Percentage inhibition of LPS/IFNγ-induced inflammatory cytokine expression: TNFα [1] [%] | Anti-inflammatory activity in the MΦ activation assay [1] | Suppression of LPS/IFNγ-induced RANTES secretion (FIG. 2B) [1] [%] | Suppression of LPS/IFNγ-induced TNFα expression (FIG. 2B) [1] [%] | Percentage inhibition of LPS/IFNγ-induced inflammatory cytokine expression: IL-1β [1] [%] | Percentage inhibition of LPS/IFNγ-induced inflammatory cytokine expression: IL-6 [1] [%] | Percentage inhibition of LPS/IFNγ-induced inflammatory cytokine expression: IL-12 p40 [1] [%] | Optimal dose (maximal response) for suppression of LPS/IFNγ-induced cytokine expression [1] [pM] | Macrophage chemotactic activity [2] | Concentration of maximal macrophage migration ([2]; tested 1 pM-100 nM) [pM] | Effect of co-administration on C140-induced macrophage migration (FIG. 11) ([2]; C17m + C140 in bottom well, 4 h) | Pertussis toxin sensitivity of the effects on macrophages (FIG. 1D) ([1]; chemerin 0.1-1 pM ± PTX 200 ng/ml)
1 | AGEDPHGYALPGQAA (Mutant C15) [C15-M, control peptide, mutant C15 (F148A & F153A), reference compound] | 0 | 0 | devoid of anti-inflammatory activity | – | – | – | – | – | – | – | – | – | –
2 | AGEDPHGYFLPGQFA (listed as Mus sp.) [C15] | 47 | 61 | – | 41 | 56 | 54 | 43 | 47 | 1 | little chemotactic activity | 100 | – | –
3 | AGEDPHGYFLPGQFAFS (listed as Mus sp.) [C17m] | – | – | – | 49 | 66 | – | – | – | – | no chemotactic activity | – | did not appear to affect macrophage migration to C140 | –
4 | GLFHDQAGPPAGYEF (Scrambled C15) [C15-S, control peptide, scrambled C15, reference compound] | 0 | 0 | devoid of anti-inflammatory activity | – | – | – | – | – | – | – | – | – | –
5 | Chemerin: 140 amino acid mouse Chemerin protein of Sequence ID no: 34 (protein, listed as Mus sp.) TVGTEPELSETQRRSLQVALEEFHKHPPVQLAFQEIGVDRAEEVLFSAGTFVRLEFKLQQTNCPKKDWKKPECTIKPNGRRRKCLACIKMDPKGKILGRIVHCPILKQGPQDPQELQCIKIAQAGEDPHGYFLPGQFAFS | 40 | 70 | – | – | – | 60 | 42 | 54 | 1 | – | – | – | pertussis toxin-sensitive
